Test results published in ChEMBL document CHEMBL4004849, “Tetrazolylmethyl quinolines: Design, docking studies, synthesis, anticancer and antifungal analyses” (2017).
Values after ≈ are worked out from the molar mass of the structure shown.

Key:
Format in all cases: functional
HL-60(TB) = test: Growth inhibition of human HL-60(TB) cells at 10^-5 M incubated for 48 hrs by sulforhodamine B assay relative to control; conditions: HL-60, 48 h, read-out: GI
MOLT-4 = test: Growth inhibition of human MOLT4 cells at 10^-5 M incubated for 48 hrs by sulforhodamine B assay relative to control; conditions: MOLT-4, 48 h, read-out: GI
SR = test: Growth inhibition of human SR cells at 10^-5 M incubated for 48 hrs by sulforhodamine B assay relative to control; conditions: read-out: GI
A549 = test: Growth inhibition of human A549/ATCC cells at 10^-5 M incubated for 48 hrs by sulforhodamine B assay relative to control; conditions: A549, 48 h, read-out: GI
EKVX = test: Growth inhibition of human EKVX cells at 10^-5 M incubated for 48 hrs by sulforhodamine B assay relative to control; conditions: read-out: GI
NCI-H226 = test: Growth inhibition of human NCI-H226 cells at 10^-5 M incubated for 48 hrs by sulforhodamine B assay relative to control; conditions: NCI-H226, 48 h, read-out: GI
NCI-H522 = test: Growth inhibition of human NCI-H522 cells at 10^-5 M incubated for 48 hrs by sulforhodamine B assay relative to control; conditions: NCI-H522, 48 h, read-out: GI
COLO 205 = test: Growth inhibition of human COLO205 cells at 10^-5 M incubated for 48 hrs by sulforhodamine B assay relative to control; conditions: COLO 205, 48 h, read-out: GI
HCC 2998 = test: Growth inhibition of human HCC2998 cells at 10^-5 M incubated for 48 hrs by sulforhodamine B assay relative to control; conditions: HCC 2998, 48 h, read-out: GI
HCT-116 = test: Growth inhibition of human HCT116 cells at 10^-5 M incubated for 48 hrs by sulforhodamine B assay relative to control; conditions: HCT-116, 48 h, read-out: GI
HCT-15 = test: Growth inhibition of human HCT15 cells at 10^-5 M incubated for 48 hrs by sulforhodamine B assay relative to control; conditions: HCT-15, 48 h, read-out: GI
HT-29 = test: Growth inhibition of human HT-29 cells at 10^-5 M incubated for 48 hrs by sulforhodamine B assay relative to control; conditions: HT-29, 48 h, read-out: GI
KM12 = test: Growth inhibition of human KM12 cells at 10^-5 M incubated for 48 hrs by sulforhodamine B assay relative to control; conditions: KM12, 48 h, read-out: GI
SF-268 = test: Growth inhibition of human SF268 cells at 10^-5 M incubated for 48 hrs by sulforhodamine B assay relative to control; conditions: SF-268, 48 h, read-out: GI
SF-295 = test: Growth inhibition of human SF295 cells at 10^-5 M incubated for 48 hrs by sulforhodamine B assay relative to control; conditions: SF-295, 48 h, read-out: GI
SF-539 = test: Growth inhibition of human SF539 cells at 10^-5 M incubated for 48 hrs by sulforhodamine B assay relative to control; conditions: SF-539, 48 h, read-out: GI
SNB-19 = test: Growth inhibition of human SNB19 cells at 10^-5 M incubated for 48 hrs by sulforhodamine B assay relative to control; conditions: SNB-19, 48 h, read-out: GI
SNB-75 = test: Growth inhibition of human SNB75 cells at 10^-5 M incubated for 48 hrs by sulforhodamine B assay relative to control; conditions: SNB-75, 48 h, read-out: GI
U-251 = test: Growth inhibition of human U251 cells at 10^-5 M incubated for 48 hrs by sulforhodamine B assay relative to control; conditions: U-251, 48 h, read-out: GI
LOX IMVI = test: Growth inhibition of human LOXIMVI cells at 10^-5 M incubated for 48 hrs by sulforhodamine B assay relative to control; conditions: read-out: GI
Malme-3M = test: Growth inhibition of human MALME-3M cells at 10^-5 M incubated for 48 hrs by sulforhodamine B assay relative to control; conditions: read-out: GI
M14 = test: Growth inhibition of human M14 cells at 10^-5 M incubated for 48 hrs by sulforhodamine B assay relative to control; conditions: M14, 48 h, read-out: GI
MDA-MB-435 = test: Growth inhibition of human MDA-MB-435 cells at 10^-5 M incubated for 48 hrs by sulforhodamine B assay relative to control; conditions: MDA-MB-435, 48 h, read-out: GI
SK-MEL-2 = test: Growth inhibition of human SK-MEL-2 cells at 10^-5 M incubated for 48 hrs by sulforhodamine B assay relative to control; conditions: SK-MEL-2, 48 h, read-out: GI
SK-MEL-28 = test: Growth inhibition of human SK-MEL-28 cells at 10^-5 M incubated for 48 hrs by sulforhodamine B assay relative to control; conditions: SK-MEL-28, 48 h, read-out: GI
SK-MEL-5 = test: Growth inhibition of human SK-MEL-5 cells at 10^-5 M incubated for 48 hrs by sulforhodamine B assay relative to control; conditions: SK-MEL-5, 48 h, read-out: GI
UACC-257 = test: Growth inhibition of human UACC257 cells at 10^-5 M incubated for 48 hrs by sulforhodamine B assay relative to control; conditions: UACC-257, 48 h, read-out: GI
OVCAR-3 = test: Growth inhibition of human OVCAR3 cells at 10^-5 M incubated for 48 hrs by sulforhodamine B assay relative to control; conditions: OVCAR-3, 48 h, read-out: GI
OVCAR-4 = test: Growth inhibition of human OVCAR4 cells at 10^-5 M incubated for 48 hrs by sulforhodamine B assay relative to control; conditions: OVCAR-4, 48 h, read-out: GI
OVCAR-5 = test: Growth inhibition of human OVCAR5 cells at 10^-5 M incubated for 48 hrs by sulforhodamine B assay relative to control; conditions: OVCAR-5, 48 h, read-out: GI
NCI/ADR-RES = test: Growth inhibition of human NCI-ADR-RES cells at 10^-5 M incubated for 48 hrs by sulforhodamine B assay relative to control; conditions: read-out: GI
SK-OV-3 = test: Growth inhibition of human SKOV3 cells at 10^-5 M incubated for 48 hrs by sulforhodamine B assay relative to control; conditions: SK-OV-3, 48 h, read-out: GI
786-0 = test: Growth inhibition of human 786-0 cells at 10^-5 M incubated for 48 hrs by sulforhodamine B assay relative to control; conditions: 786-0, 48 h, read-out: GI
CAKI-1 = test: Growth inhibition of human Caki1 cells at 10^-5 M incubated for 48 hrs by sulforhodamine B assay relative to control; conditions: CAKI-1, 48 h, read-out: GI
UO-31 = test: Growth inhibition of human UO31 cells at 10^-5 M incubated for 48 hrs by sulforhodamine B assay relative to control; conditions: UO-31, 48 h, read-out: GI
MCF7 = test: Growth inhibition of human MCF7 cells at 10^-5 M incubated for 48 hrs by sulforhodamine B assay relative to control; conditions: MCF7, 48 h, read-out: GI
MDA-MB-231 = test: Growth inhibition of human MDA-MB-231/ATCC cells at 10^-5 M incubated for 48 hrs by sulforhodamine B assay relative to control; conditions: MDA-MB-231, 48 h, read-out: GI
Hs-578T = test: Growth inhibition of human Hs 578T cells at 10^-5 M incubated for 48 hrs by sulforhodamine B assay relative to control; conditions: read-out: GI
BT-549 = test: Growth inhibition of human BT549 cells at 10^-5 M incubated for 48 hrs by sulforhodamine B assay relative to control; conditions: BT-549, 48 h, read-out: GI
T47D = test: Growth inhibition of human T47D cells at 10^-5 M incubated for 48 hrs by sulforhodamine B assay relative to control; conditions: read-out: GI
MDA-MB-468 = test: Growth inhibition of human MDA-MB-468 cells at 10^-5 M incubated for 48 hrs by sulforhodamine B assay relative to control; conditions: MDA-MB-468, 48 h, read-out: GI
Candida albicans = test: Antifungal activity against Candida albicans after 24 hrs by serial dilution method
Aspergillus fumigatus [1] = test: Antifungal activity against Aspergillus fumigatus at 100 ug/ml by disc diffusion method; conditions: read-out: IZ
Aspergillus fumigatus [2] = test: Antifungal activity against Aspergillus fumigatus after 24 hrs by serial dilution method

Clc1nc2ccccc2cc1Cn1nnc(Cc2ccccc2)n1
inhibition of growth at 10 µM (HL-60(TB)): 12.1%
inhibition of growth at 10 µM (MOLT-4): 56.9%
inhibition of growth at 10 µM (SR): 63%
inhibition of growth at 10 µM (A549): 46.1%
inhibition of growth at 10 µM (EKVX): 63.9%
inhibition of growth at 10 µM (NCI-H226): 41.8%
inhibition of growth at 10 µM (NCI-H522): 57.9%
inhibition of growth at 10 µM (COLO 205): 17.3%
inhibition of growth at 10 µM (HCC 2998): 18.7%
inhibition of growth at 10 µM (HCT-116): 64.9%
inhibition of growth at 10 µM (HCT-15): 35%
inhibition of growth at 10 µM (HT-29): 28.4%
inhibition of growth at 10 µM (KM12): 33.7%
inhibition of growth at 10 µM (SF-268): 34.3%
inhibition of growth at 10 µM (SF-295): 52.4%
inhibition of growth at 10 µM (SF-539): 18.8%
inhibition of growth at 10 µM (SNB-19): 10.2%
inhibition of growth at 10 µM (SNB-75): 44.6%
inhibition of growth at 10 µM (U-251): 23.7%
inhibition of growth at 10 µM (LOX IMVI): 46.4%
inhibition of growth at 10 µM (Malme-3M): 34.4%
inhibition of growth at 10 µM (M14): 26.4%
inhibition of growth at 10 µM (MDA-MB-435): 34.7%
inhibition of growth at 10 µM (SK-MEL-2): 41.2%
inhibition of growth at 10 µM (SK-MEL-28): 15.3%
inhibition of growth at 10 µM (SK-MEL-5): 99.3%
inhibition of growth at 10 µM (UACC-257): 46.4%
inhibition of growth at 10 µM (OVCAR-3): 40.5%
inhibition of growth at 10 µM (OVCAR-4): 70.3%
inhibition of growth at 10 µM (OVCAR-5): -4.25%
inhibition of growth at 10 µM (NCI/ADR-RES): 47.9%
inhibition of growth at 10 µM (SK-OV-3): 42.6%
inhibition of growth at 10 µM (786-0): 27.1%
inhibition of growth at 10 µM (CAKI-1): 59.5%
inhibition of growth at 10 µM (UO-31): 181%
inhibition of growth at 10 µM (MCF7): 54.2%
inhibition of growth at 10 µM (MDA-MB-231): 47%
inhibition of growth at 10 µM (Hs-578T): 23.4%
inhibition of growth at 10 µM (BT-549): 61.1%
inhibition of growth at 10 µM (T47D): 73.9%
inhibition of growth at 10 µM (MDA-MB-468): 88.9%
MIC (Candida albicans): 25 µg/mL (≈ 74.4 µM)
zone of inhibition at 100 µg/mL (Aspergillus fumigatus [1]): 16 mm
MIC (Aspergillus fumigatus [2]): 50 µg/mL (≈ 149 µM)
